Reference: ChEMBL document CHEMBL1201862, “PubChem BioAssay data set” (2004)
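The compound was tested at five concentrations on cells cultured in 96-well plates, with a 48-hour exposure period. Here, GI50 denotes the concentration required for 50% inhibition of growth.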 Activity calls are given as the source filed them. Rule as the data show it: active = GI50 up to about 1.1 µM and inactive = higher.

Key:
Assay in all cases: NCI-60 cell line screen, 48 h
HCT-116 = system: HCT-116
NCI-H522 = system: NCI-H522
SK-MEL-2 = system: SK-MEL-2
NCI-H23 = system: NCI-H23
CCRF-CEM = system: CCRF-CEM
SNB-19 = system: SNB-19
SF-295 = system: SF-295
SR = system: SR
SK-OV-3 = system: SK-OV-3
A549 = system: A549
HOP-62 = system: HOP-62
Malme-3M = system: Malme-3M
U-251 = system: U-251
HCT-15 = system: HCT-15
SK-MEL-5 = system: SK-MEL-5
MOLT-4 = system: MOLT-4
OVCAR-5 = system: OVCAR-5
SN12C = system: SN12C
MDA-N = system: MDA-N
BT-549 = system: BT-549

| Structure (SMILES) | GI50 (HCT-116) | GI50 (NCI-H522) | GI50 (SK-MEL-2) | GI50 (NCI-H23) | GI50 (CCRF-CEM) | GI50 (SNB-19) | GI50 (SF-295) | GI50 (SR) | GI50 (SK-OV-3) | GI50 (A549) | GI50 (HOP-62) | GI50 (Malme-3M) | GI50 (U-251) | GI50 (HCT-15) [µM] | GI50 (SK-MEL-5) | GI50 (MOLT-4) | GI50 (OVCAR-5) | GI50 (SN12C) | GI50 (MDA-N) | GI50 (BT-549) |
| --- | --- | --- | --- | --- | --- | --- | --- | --- | --- | --- | --- | --- | --- | --- | --- | --- | --- | --- | --- | --- |
| O=C(/N=c1/[nH]/c(=N/C(=O)c2ccccc2)ss1)c1ccccc1 | 28.8 µM (inactive) | 5.78 µM (inactive) | 19.4 µM (inactive) | 19.3 µM (inactive) | 16 µM (inactive) | 33.5 µM (inactive) | 18 µM (inactive) | 24 µM (inactive) | 34.7 µM (inactive) | 11.4 µM (inactive) | 21.9 µM (inactive) | 9.89 µM (inactive) | 7.55 µM (inactive) | 21.4 | 5.11 µM (inactive) | 24.7 µM (inactive) | 31.7 µM (inactive) | 16.5 µM (inactive) |  |  |
| CC(C)(c1ccc(C=O)o1)c1ccc(C(C)(C)c2ccc(C=O)o2)o1 | > 100 µM (inactive) | > 100 µM (inactive) | > 100 µM (inactive) | > 100 µM (inactive) | > 100 µM (inactive) | > 100 µM (inactive) | > 100 µM (inactive) | > 100 µM (inactive) | > 100 µM (inactive) | > 100 µM (inactive) | > 100 µM (inactive) | > 100 µM (inactive) | > 100 µM (inactive) |  |  | > 100 µM (inactive) | > 100 µM (inactive) |  |  |  |
| COc1cc(OC)c2c(c1OC)OCC(Cc1ccc(O)cc1)C2=O (stereo unspecified) | > 25 µM (inactive) | > 25 µM (inactive) | > 25 µM (inactive) | > 25 µM (inactive) | > 25 µM (inactive) | > 25 µM (inactive) | > 25 µM (inactive) | > 25 µM (inactive) | > 25 µM (inactive) | > 25 µM (inactive) | > 25 µM (inactive) | > 25 µM (inactive) | > 25 µM (inactive) | > 25 | 19.8 µM (inactive) | > 25 µM (inactive) | > 25 µM (inactive) | > 25 µM (inactive) | > 25 µM (inactive) |  |
| N#CCc1ccc(C(C#N)/C(CCCC(=O)Nc2cccc([N+](=O)[O-])c2)=N/NC(N)=S)cc1 (stereo unspecified) | > 100 µM (inactive) | 27.9 µM (inactive) | > 100 µM (inactive) | > 100 µM (inactive) | 51.6 µM (inactive) | 76 µM (inactive) | > 100 µM (inactive) | > 100 µM (inactive) | > 100 µM (inactive) | > 100 µM (inactive) | > 100 µM (inactive) | > 100 µM (inactive) | > 100 µM (inactive) | > 100 | > 100 µM (inactive) | 70.3 µM (inactive) | > 100 µM (inactive) | > 100 µM (inactive) |  |  |
| O=C1C(NCCF)=C(Cl)C(=O)c2ncccc21 | 1.18 µM (inactive) |  | 0.179 µM (active) | 0.653 µM (active) | 0.204 µM (active) | 1.39 µM (inactive) | 1.49 µM (inactive) | 2.36 µM (inactive) | 1.77 µM (inactive) | 1.73 µM (inactive) | 1.47 µM (inactive) | 0.402 µM (active) | 0.689 µM (active) | 0.461 | 0.145 µM (active) | 1.22 µM (inactive) | 2.04 µM (inactive) | 1.02 µM (active) |  | 1.49 µM (inactive) |
| N#CC(C#N)C(c1ccccc1)c1ccccc1 | > 100 µM (inactive) | > 100 µM (inactive) | > 100 µM (inactive) |  | > 100 µM (inactive) | > 100 µM (inactive) | > 100 µM (inactive) | > 100 µM (inactive) | > 100 µM (inactive) | > 100 µM (inactive) | > 100 µM (inactive) | > 100 µM (inactive) | > 100 µM (inactive) | > 100 | > 100 µM (inactive) | 82 µM (inactive) | > 100 µM (inactive) | > 100 µM (inactive) |  |  |
| CC(=O)c1cccc(N2COC(C)(C)c3nc4ccccc4n3C2)c1 | > 100 µM (inactive) | > 100 µM (inactive) | > 100 µM (inactive) | > 100 µM (inactive) | > 100 µM (inactive) | > 100 µM (inactive) | > 100 µM (inactive) | > 100 µM (inactive) | > 100 µM (inactive) | > 100 µM (inactive) | > 100 µM (inactive) | > 100 µM (inactive) | > 100 µM (inactive) | > 100 |  | > 100 µM (inactive) |  | > 100 µM (inactive) |  |  |
| COc1ccc2c(c1)C=C(C(C)(C)C)NS2(=O)=O | > 100 µM (inactive) | > 100 µM (inactive) | > 100 µM (inactive) | > 100 µM (inactive) | > 100 µM (inactive) | > 100 µM (inactive) | > 100 µM (inactive) | > 100 µM (inactive) | > 100 µM (inactive) | > 100 µM (inactive) | > 100 µM (inactive) | > 100 µM (inactive) | > 100 µM (inactive) | > 100 | > 100 µM (inactive) | > 100 µM (inactive) | > 100 µM (inactive) | > 100 µM (inactive) |  |  |
| Cc1cc(NCCCCCCNc2cc(C)nc3ccc(Cl)cc23)c2cc(Cl)ccc2n1 | 14.7 µM (inactive) | 17 µM (inactive) | 26.2 µM (inactive) | 15 µM (inactive) | 3.63 µM (inactive) | 25.9 µM (inactive) | 16.6 µM (inactive) | 2.09 µM (inactive) | > 100 µM (inactive) | 20.8 µM (inactive) | 75.5 µM (inactive) | 28.1 µM (inactive) | 16.9 µM (inactive) | 18 | 18.3 µM (inactive) | 27.7 µM (inactive) | 19.7 µM (inactive) | 22 µM (inactive) |  |  |
| O=C(/C=C1\N=C(c2ccccc2)N(c2ccc3c(c2)Sc2cc(N4C(=O)/C(=C/C(=O)/C=C/c5ccccc5)N=C4c4ccccc4)ccc2N3)C1=O)/C=C/c1ccccc1 | > 100 µM (inactive) | 20.9 µM (inactive) | 18.4 µM (inactive) | 50.4 µM (inactive) | 24.4 µM (inactive) | 29.7 µM (inactive) | 23.4 µM (inactive) |  | 18.3 µM (inactive) | > 100 µM (inactive) | 48.8 µM (inactive) | 26.1 µM (inactive) | 24.2 µM (inactive) | > 100 | 18.7 µM (inactive) | 41.4 µM (inactive) | 22.4 µM (inactive) | 36.8 µM (inactive) |  | 23.5 µM (inactive) |
| O=S(=O)(NC(c1ccccc1)(c1cc2ccccc2[nH]1)c1cc2ccccc2n1S(=O)(=O)c1ccccc1)c1ccccc1 (stereo unspecified) | > 100 µM (inactive) |  | 28.9 µM (inactive) | > 100 µM (inactive) | > 100 µM (inactive) | > 100 µM (inactive) | > 100 µM (inactive) | > 100 µM (inactive) | 0.292 µM (active) | 48.3 µM (inactive) | > 100 µM (inactive) | 59.2 µM (inactive) | > 100 µM (inactive) | > 100 | > 100 µM (inactive) | > 100 µM (inactive) | > 100 µM (inactive) |  |  | > 100 µM (inactive) |
| CCOC(=O)c1c(NC(=O)c2ccccc2)c(C#N)c2n1CCCCC2 | > 100 µM (inactive) | > 100 µM (inactive) |  | > 100 µM (inactive) | > 100 µM (inactive) | > 100 µM (inactive) | > 100 µM (inactive) | > 100 µM (inactive) | > 100 µM (inactive) | > 100 µM (inactive) | > 100 µM (inactive) | > 100 µM (inactive) | > 100 µM (inactive) | > 100 | > 100 µM (inactive) | > 100 µM (inactive) | > 100 µM (inactive) | > 100 µM (inactive) | > 100 µM (inactive) |  |
| CN(C)CC/C(=N\Nc1ccc(Cl)cc1)c1ccccc1 | 1.18 µM (inactive) | 1.32 µM (inactive) | 1.86 µM (inactive) | 1.95 µM (inactive) | 0.417 µM (active) | 2.43 µM (inactive) | 0.374 µM (active) | 0.415 µM (active) | 2.22 µM (inactive) | 1.47 µM (inactive) | 1.68 µM (inactive) | 1.98 µM (inactive) | 0.513 µM (active) | 0.327 | 1.7 µM (inactive) | 0.403 µM (active) | 1.24 µM (inactive) | 1.58 µM (inactive) |  |  |
| CCOC1=NC(C(F)(F)F)(C(F)(F)F)N=C(N2CCCCC2)O1 | > 100 µM (inactive) | > 100 µM (inactive) | > 100 µM (inactive) | > 100 µM (inactive) | > 100 µM (inactive) | > 100 µM (inactive) | > 100 µM (inactive) | 59 µM (inactive) |  | > 100 µM (inactive) | > 100 µM (inactive) | > 100 µM (inactive) | > 100 µM (inactive) | > 100 | > 100 µM (inactive) | > 100 µM (inactive) | > 100 µM (inactive) | > 100 µM (inactive) |  |  |
| O=C(Cc1ccccc1)NN1C(=O)C(Cl)C1c1ccccc1Cl (stereo unspecified) | 59.4 µM (inactive) | 13.2 µM (inactive) | > 100 µM (inactive) | 64.1 µM (inactive) | 14.1 µM (inactive) | > 100 µM (inactive) | 99.8 µM (inactive) | 23.2 µM (inactive) | > 100 µM (inactive) | > 100 µM (inactive) | > 100 µM (inactive) | > 100 µM (inactive) | 44.1 µM (inactive) | > 92.9 | > 72.6 µM (inactive) | 26.2 µM (inactive) | > 100 µM (inactive) | > 75.9 µM (inactive) |  |  |
| Cc1nc(Nc2ccccc2)sc1C(=O)NNc1ccc([N+](=O)[O-])cc1[N+](=O)[O-] | 42.4 µM (inactive) | 19.5 µM (inactive) | 38.5 µM (inactive) | 17.5 µM (inactive) | 14.2 µM (inactive) | 47.1 µM (inactive) | 27.5 µM (inactive) | 14.7 µM (inactive) | 40.6 µM (inactive) | 93.5 µM (inactive) | 41.9 µM (inactive) | 43.9 µM (inactive) | 38.6 µM (inactive) | 26.2 | 25.5 µM (inactive) | 24.7 µM (inactive) | 33.7 µM (inactive) | 49 µM (inactive) |  |  |
